For one compound, IC50 results are on record in PubChem BioAssay AID558 (University of Pittsburgh Molecular Library Screening Center, 2006).

SMILES strings stand for the structures. Activity calls are given as the source filed them. The rule behind the calls is not given here.

The experiment has as its target Dual specificity protein phosphatase 1 (Homo sapiens) (UniProt P28562). The experiment in a line: DTT effect on MKP-1 inhibitor potency – biochemical, DTT added, probe assessment, dose response (AID 558). The note with it: recombinant MKP-1 phosphatase, fluorescence, with DTT.

Sequence of Dual specificity protein phosphatase 1 (Homo sapiens) (P28562 whole entry, looked up): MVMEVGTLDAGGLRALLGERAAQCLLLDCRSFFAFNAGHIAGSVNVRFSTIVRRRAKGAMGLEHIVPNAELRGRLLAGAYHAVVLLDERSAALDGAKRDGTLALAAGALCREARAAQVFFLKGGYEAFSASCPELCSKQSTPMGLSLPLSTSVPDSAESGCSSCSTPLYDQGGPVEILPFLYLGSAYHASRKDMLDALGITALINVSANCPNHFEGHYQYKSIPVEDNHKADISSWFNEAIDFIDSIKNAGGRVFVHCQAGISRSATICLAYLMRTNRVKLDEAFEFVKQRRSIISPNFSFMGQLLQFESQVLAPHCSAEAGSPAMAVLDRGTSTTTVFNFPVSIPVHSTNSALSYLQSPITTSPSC

One may read the IC50 as the point on the concentration scale where inhibition reaches its midpoint. With `O=C1C(C2=C(O)c3ccccc3C2=O)=Nc2ccccc21`, the IC50 is > 50 µM (inactive).
